According to patent publication US8232407B2, “Nitrogenous heterocyclic compounds with insecticidal activity, and the preparation and use thereof” (East China University of Science and Technology, priority 2008, dated 2012):
Read-outs that look alike come from different tables or passages of the source.

How the values were obtained:
Assay type in all cases: in vivo
Aphis craccivoral = assay: Insecticidal activities to aphids, immersion method; details: for Aphis craccivoral Mortality (%) 500 ppm: in vivo; for mortality at 500 ppm: Aphis, read-out: Aphis craccivoral Mortality (%) 500 ppm
How it was run: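 Wingless adult aphids feeding on bean sprouts were dipped 5 s in 500 ppm compound (DMF stock diluted in 0.2 mL/L aqueous Triton X-100), blotted and held at 23° C. Dead counted at 24 h, three replicates; mortality corrected against Triton-only controls.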

Nilaparvata lugens = assay: Insecticidal activities to plant hopper, spraying method; details: for Nilaparvata lugens Mortality (%) 500 ppm: in vivo; for mortality at 500 ppm: Nilaparvata lugens, counted after 24 hours, read-out: Nilaparvata lugens Mortality (%) 500 ppm
How it was run: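 Nilaparvata lugens, 10 insects per tumbler, sprayed with 2 ml compound in acetone at 0.79-500 ppm, three replicates, aqueous acetone control. Dead insects counted after 24 h; mortality corrected against control survival.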

[1] = test system: Pseudaletia separate Walker; assay: Insecticidal activities to armyworm, leaf dipping and feeding
How it was run: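 Maize leaves dipped 3 s in acetone-formulated compound at 500 down to 1.57 ppm, dried and fed to armyworms, 10 insects per treatment in triplicate, aqueous acetone as control. Mortality was counted after 24 hours and corrected against control survival.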

Plutella xylostella = assay: Insecticidal activities to diamondback moth, feeding dipped leaves; details: for Plutella xylostella Mortality (%) 500 ppm: in vivo; for mortality at 500 ppm: Plutella xylostella, counted after 24 hours, read-out: Plutella xylostella Mortality (%) 500 ppm
How it was run: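 Leaf-dip feeding assay: fresh cabbage leaves dipped 3 s in test solution, air-dried and fed to Plutella xylostella, 10 insects per treatment, three replicates, water control. Deaths counted after 24 h; mortality corrected against survival in the control group.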

| Structure (SMILES) | Aphis craccivoral Mortality (%) 500 ppm (Aphis craccivoral) [%] | Nilaparvata lugens Mortality (%) 500 ppm (Nilaparvata lugens) [%] | Pseudaletia separate Walker Mortality (%) 500 ppm ([1]; in vivo) [%] | Plutella xylostella Mortality (%) 500 ppm (Plutella xylostella) [%] | further results |
| --- | --- | --- | --- | --- | --- |
| C[N+]1=C(/C(=C\c2ccc[nH]2)[N+](=O)[O-])N(Cc2cnc(Cl)s2)CC1.[Cl-] [Compound 284] | 100 | 100 | 100 | 100 | – |
| CC[N+]1=C(C(=Cc2ccco2)[N+](=O)[O-])N(Cc2ccc(Cl)nc2)CC1.[Cl-] [Compound 285] | 100 | 100 | 100 | 100 | – |
| CCN(Cc1ccc(Cl)nc1)C(=N\C)/C(=C\c1ccc[nH]1)[N+](=O)[O-] [Compound 160, N-((6-chloropyridin-3-yl)methyl)-N-ethyl-N′-methyl-2-nitro-3-(1H-pyrrol-2-yl) acrylamidine] | – | – | – | – | mortality at 500 ppm (Aphis craccivoral; immersion 5 seconds, counted after 24 hours): 56%; mortality at 500 ppm (Nilaparvata lugens; spraying): 54%; mortality at 500 ppm ([1]; Zea mays, foliar, 500 ppm, dipped maize leaves fed, counted after 24 hours, read-out: Pseudaletia separate Walker Mortality (%) 500 ppm): 64%; mortality at 500 ppm (Plutella xylostella; dipped cabbage leaves fed): 100% |
| Cc1csc(C=C(C2=NCCN2Cc2ccc(Cl)nc2)[N+](=O)[O-])c1 [Compound 28] | 100 | 100 | 100 | 100 | – |
| O=[N+]([O-])C(=Cc1ccoc1)C1=NCCN1Cc1cnc(Cl)s1 [Compound 69] | 100 | 100 | 100 | 100 | – |
| O=[N+]([O-])C(=Cc1cc(Br)cs1)C1=NCCN1Cc1cnc(Cl)s1 [Compound 89] | 100 | 100 | 97 | 100 | – |
| O=[N+]([O-])/C(=C/c1ccco1)C1=NCCN1Cc1cnc(Cl)s1 [Compound 68, 1-((2-chlorothiozol-5-yl)methyl)-2-(2-(furan-2-yl)-1-nitrovinyl)-4,5-dihydro-1H-imidazole] | – | – | – | – | mortality at 500 ppm (Aphis craccivoral; immersion method): 100%; mortality at 500 ppm (Nilaparvata lugens; spraying method): 100%; Pseudaletia separate Walker Mortality (%) 500 ppm ([1]; 500 ppm, leaf dipping and feeding, counted after 24 hours): 100%; mortality at 500 ppm (Plutella xylostella; feeding dipped leaves): 100% |
| O=[N+]([O-])C(=Cc1cc(Br)co1)C1=NCCCN1Cc1ccc(Cl)nc1 [Compound 52] | 100 | 100 | 100 | 100 | – |
| O=[N+]([O-])C(=Cc1sc(Br)cc1Br)C1=NCCN1Cc1ccc(Cl)nc1 [Compound 26] | 100 | 100 | 100 | 100 | – |
| C[N+]1=C(C(=Cc2ccc([N+](=O)[O-])o2)[N+](=O)[O-])N(Cc2ccc(Cl)nc2)CC1.[Cl-] [Compound 246] | 100 | 100 | 100 | 100 | – |
| O=[N+]([O-])C(=Cc1ccc(CO)o1)C1=NCCCN1Cc1ccc(Cl)nc1 [Compound 60] | 47 | 56 | 84 | 100 | – |
| O=[N+]([O-])C(=Cc1ccc(Br)s1)C1=NCCN1Cc1ccc(Cl)nc1 [Compound 20] | 100 | 100 | 100 | 100 | – |
| CC(=C(C1=NCCN1C(C)c1ccc(Cl)nc1)[N+](=O)[O-])c1ccc([N+](=O)[O-])o1 (racemic) [Compound 135] | 56 | 63 | 45 | 56 | – |
| O=[N+]([O-])C(=Cc1cc(Br)c(Br)s1)C1=NCCN1Cc1ccc(Cl)nc1 [Compound 25] | 100 | 100 | 100 | 100 | – |
| O=[N+]([O-])C(=Cc1ccc([N+](=O)[O-])o1)C1=NCCN1Cc1ccccc1 [Compound 105] | 80 | 100 | 98 | 90 | – |
| O=[N+]([O-])C(=Cc1cc(Cl)c(Cl)o1)C1=NCCN1Cc1cnc(Cl)s1 [Compound 75] | 100 | 100 | 100 | 100 | – |

| Structure (SMILES) | Aphis craccivoral Mortality (%) 500 ppm (Aphis craccivoral) [%] | Nilaparvata lugens Mortality (%) 500 ppm (Nilaparvata lugens) [%] | Pseudaletia separate Walker Mortality (%) 500 ppm ([1]; in vivo) [%] | Plutella xylostella Mortality (%) 500 ppm (Plutella xylostella) [%] | further results |
| --- | --- | --- | --- | --- | --- |
| N#CC(=Cc1ccc(CO)o1)C1=NCCN1Cc1ccc(Cl)nc1 [Compound 145] | 92 | 100 | 100 | 100 | – |
| C[N+]1=C(C(=Cc2ccc(CO)s2)[N+](=O)[O-])N(Cc2ccc(Cl)nc2)CC1.[Cl-] [Compound 273] | 100 | 100 | 100 | 100 | – |
| O=[N+]([O-])C(=Cc1cc(Cl)co1)C1=NCCN1Cc1cnc(Cl)s1 [Compound 73] | 100 | 100 | 100 | 100 | – |
| O=[N+]([O-])C(=Cc1cc(Br)cs1)C1=NCCCN1Cc1ccc(Cl)nc1 [Compound 67] | 65 | 83 | 90 | 100 | – |
| C[N+]1=C(C(=Cc2ccco2)[N+](=O)[O-])N(Cc2ccc(Cl)nc2)CC1.[Cl-] [Compound 244] | 100 | 100 | 100 | 100 | – |
| Cc1ccc(C=C(C2=NCCN2Cc2ccc(Cl)nc2)[N+](=O)[O-])s1 [Compound 27] | 100 | 100 | 100 | 100 | – |
| CC(c1ccc(Cl)nc1)N1CCN=C1C(=Cc1ccoc1)[N+](=O)[O-] (racemic) [Compound 123] | 100 | 100 | 100 | 100 | – |
| CC(c1ccc(Cl)nc1)N1CCN=C1C(=Cc1ccco1)[N+](=O)[O-] (racemic) [Compound 121] | 100 | 100 | 100 | 56 | – |
| O=[N+]([O-])C(=Cc1ccc[nH]1)C1=NCCN1Cc1ccc(Cl)nc1 [Compound 31] | 100 | 100 | 100 | 100 | – |
| O=[N+]([O-])C(=Cc1cc(Br)co1)C1=NCCN1Cc1cnc(Cl)s1 [Compound 74] | 100 | 100 | 100 | 100 | – |
| O=[N+]([O-])C(=Cc1ccccc1)C1=NCCN1Cc1ccc(Cl)nc1 [Compound 44] | 67 | 92 | 97 | 100 | – |
| O=[N+]([O-])C(=Cc1ccc([N+](=O)[O-])s1)C1=NCCN1Cc1cnc(Cl)s1 [Compound 85] | 100 | 100 | 100 | 100 | – |
| C[N+]1=C(C(=Cc2cc(Br)cs2)[N+](=O)[O-])N(Cc2ccc(Cl)nc2)CC1.[Cl-] [Compound 265] | 100 | 100 | 100 | 100 | – |
| C[N+]1=C(C(=Cc2cc(Br)co2)[N+](=O)[O-])N(Cc2ccc(Cl)nc2)CC1.[Cl-] [Compound 250] | 100 | 100 | 100 | 100 | – |
| C[N+]1=C(C(=Cc2cc(Br)c(Br)s2)[N+](=O)[O-])N(Cc2ccc(Cl)nc2)CC1.[Cl-] [Compound 268] | 100 | 100 | 100 | 100 | – |
